Experimental data taken from patent US8759363B2, “Quinazoline-based T cell proliferation inhibitors” (Yissum Research Development Company of the Hebrew …, priority 2010, dated 2014).

System: PBMC
Assay: PBMC proliferation, BrdU incorporation
Assay type: cell-based, human
Conditions: Homo sapiens; ConA-stimulated PBMC, BrdU uptake; nM ± SD; read-out: IC50 PBMC proliferation inhibition
Experimental: Blood samples were taken from healthy donors and loaded on a Ficoll density gradient to purify the PBMC population. T cells were purified by human anti-CD3 using an autoMACS instrument (Miltenyi Biotec, Bergisch-Gladbach, Germany), according to the manufacturer's instructions. The identity of T cells was confirmed by flow cytometry, as they stained positive for CD3. Cells were stimulated with ConA (10 μg/ml), ODN2006 (0.5 μg/ml; Enzo Life Sciences), or LPS (50 μg/ml; Sigma-Aldrich, Steinheim, Germany), for 72 h in the presence of the inhibitor, and their proliferation was measured in the BrdU incorporation assay as will be later described.
(§1) Cells were depleted of fetal calf serum (FCS) for 12 hours. They were then stimulated to proliferate by addition of ConA (10 μg/ml) for PBMC from healthy individuals and for Jurkat cells, FCS (10%) for HEK293 and A375 cells, PDGF (30 ng/ml) for NIH 3T3 cells, and EGF (30 ng/ml) for MDA-MB-231, Cells (1×10^5) were cultured in 96-well plates for 3 days in the presence or absence of inhibitors at the concentrations specified in the text. Each condition was tested in duplicate wells.
(§2) Proliferation was assessed by BrdU incorporation using a colorimetric ELISA kit (Roche, Germany). Subsequent to labeling with 10 μM BrdU, DNA was denatured and the cells were incubated with anti-BrdU-POD, prior to the addition of colorimetric substrate (TMB). The reaction product was quantified by measuring absorbance at 450 nm in an ELISA plate reader (ELx800 BIO-TEK Instruments Inc.).
(§3) Since we were not prejudiced towards any specific protein kinase, we used a biological assay for T cell proliferation. We tested our libraries for inhibition of proliferation of PBMC and Jurkat cells (Table 3). Cell proliferation was measured by BrdU uptake. […] PBMC cells were stimulated by a non-specific T cell mitogen, Concanavalin A (ConA). All of the compounds that were tested inhibited proliferation at micromolar or sub-micromolar concentrations.

| SMILES | IC50 |
| --- | --- |
| Cc1ccc(Nc2nc(-c3cc(O)c(O)c(O)c3)nc3ccccc23)c(C)c1 [Compound 22, 5-(4-(2,4-dimethylphenylamino)quinazolin-2-yl)benzene-1,2,3-triol] | 730 ± 0.04 nM |
| Oc1cc(-c2nc(Nc3ccc4cn[nH]c4c3)c3ccccc3n2)cc(O)c1O [Compound 34, 5-(4-(1H-indazol-6-ylamino)quinazolin-2-yl)benzene-1,2,3-triol] | 500 ± 0.14 nM |
| Oc1cc(-c2nc(Nc3ccc(Cl)cc3)c3ccccc3n2)cc(O)c1O [Compound 27, 5-(4-(4-chlorophenylamino)quinazolin-2-yl)benzene-1,2,3-triol] | 550 ± 0.21 nM |
| Nc1ccc(CNc2nc(-c3cc(O)c(O)c(O)c3)nc3ccccc23)cc1 [Compound 30, 5-(4-(4-aminobenzylamino)quinazolin-2-yl)benzene-1,2,3-triol] | 570 ± 0.24 nM |
| COc1cc(-c2nc(Nc3ccc(C)cc3C)c3ccccc3n2)cc(OC)c1OC [Compound 3, N-(2,4-dimethylphenyl)-2-(3,4,5-trimethoxyphenyl)quinazolin-4-amine] | 750 ± 0.05 nM |
| COc1cc(-c2nc(Nc3ccc(Cl)cc3)c3ccccc3n2)cc(OC)c1OC [Compound 8, N-(4-chlorophenyl)-2-(3,4,5-trimethoxyphenyl)quinazolin-4-amine] | 300 ± 0.05 nM |
| CCCCCCCCOc1ccc(Nc2nc(-c3cc(OC)c(OC)c(OC)c3)nc3ccccc23)cc1 [Compound 6, N-(4-(octyloxy)phenyl)-2-(3,4,5-trimethoxyphenyl)quinazolin-4-amine] | 2400 ± 2.26 nM |
| COc1cc(-c2nc(NCc3ccccc3)c3ccccc3n2)cc(OC)c1OC [Compound 10, N-benzyl-2-(3,4,5-trimethoxyphenyl)quinazolin-4-amine] | 3250 ± 2.47 nM |
| COc1cc(-c2nc(NCc3ccc(F)c(F)c3)c3ccccc3n2)cc(OC)c1OC [Compound 12, N-(3,4-difluorobenzyl)-2-(3,4,5-trimethoxyphenyl)quinazolin-4-amine] | 200 nM |
| Oc1cc(-c2nc(NCCc3c[nH]c4ccccc34)c3ccccc3n2)cc(O)c1O [Compound 36, 5-(4-(2-(1H-indol-3-yl)ethylamino)quinazolin-2-yl)benzene-1,2,3-triol] | 1240 ± 0.74 nM |
| COc1ccc(CNc2nc(-c3cc(OC)c(OC)c(OC)c3)nc3ccccc23)cc1 [Compound 14, N-(4-methoxybenzyl)-2-(3,4,5-trimethoxyphenyl)quinazolin-4-amine] | 500 ± 0.14 nM |
| OCc1ccccc1Nc1nc(-c2cc(O)c(O)c(O)c2)nc2ccccc12 [Compound 28, 5-(4-(2-(hydroxymethyl)phenylamino)quinazolin-2-yl)benzene-1,2,3-triol] | 900 ± 0.14 nM |
| Oc1cc(-c2nc(Nc3ccc4[nH]ncc4c3)c3ccccc3n2)cc(O)c1O [Compound 35, 5-(4-(1H-indazol-5-ylamino)quinazolin-2-yl)benzene-1,2,3-triol] | 780 ± 0.67 nM |

Same assay, conditions: relative to compound 2

| SMILES | fold increase in the IC50 of PBMC proliferation compared with compound 2 |
| --- | --- |
| COc1cc(-c2nc(Nc3ccc(C)cc3C)c3ccccc3n2)cc(OC)c1OC [Compound 3, N-(2,4-dimethylphenyl)-2-(3,4,5-trimethoxyphenyl)quinazolin-4-amine] | 10 fold |

System: Jurkat cells
Assay: Jurkat cell proliferation, BrdU incorporation
Assay type: cell-based, human
Conditions: Homo sapiens, Jurkat, BrdU uptake; nM ± SD; read-out: IC50 Jurkat cells proliferation inhibition
Experimental: as §1, §2, §3

| IC50 | SMILES |
| --- | --- |
| 3700 ± 4.67 nM | Cc1ccc(Nc2nc(-c3cc(O)c(O)c(O)c3)nc3ccccc23)c(C)c1 [Compound 22, 5-(4-(2,4-dimethylphenylamino)quinazolin-2-yl)benzene-1,2,3-triol] |
| 690 ± 0.3 nM | Oc1cc(-c2nc(Nc3ccc4cn[nH]c4c3)c3ccccc3n2)cc(O)c1O [Compound 34, 5-(4-(1H-indazol-6-ylamino)quinazolin-2-yl)benzene-1,2,3-triol] |
| 4250 ± 5.3 nM | Oc1cc(-c2nc(Nc3ccc(Cl)cc3)c3ccccc3n2)cc(O)c1O [Compound 27, 5-(4-(4-chlorophenylamino)quinazolin-2-yl)benzene-1,2,3-triol] |
| 670 ± 0.22 nM | Nc1ccc(CNc2nc(-c3cc(O)c(O)c(O)c3)nc3ccccc23)cc1 [Compound 30, 5-(4-(4-aminobenzylamino)quinazolin-2-yl)benzene-1,2,3-triol] |
| 2600 ± 3.39 nM | COc1cc(-c2nc(Nc3ccc(C)cc3C)c3ccccc3n2)cc(OC)c1OC [Compound 3, N-(2,4-dimethylphenyl)-2-(3,4,5-trimethoxyphenyl)quinazolin-4-amine] |
| 530 ± 0.32 nM | COc1cc(-c2nc(Nc3ccc(Cl)cc3)c3ccccc3n2)cc(OC)c1OC [Compound 8, N-(4-chlorophenyl)-2-(3,4,5-trimethoxyphenyl)quinazolin-4-amine] |
| 850 ± 0.07 nM | CCCCCCCCOc1ccc(Nc2nc(-c3cc(OC)c(OC)c(OC)c3)nc3ccccc23)cc1 [Compound 6, N-(4-(octyloxy)phenyl)-2-(3,4,5-trimethoxyphenyl)quinazolin-4-amine] |
| 600 ± 0.14 nM | COc1cc(-c2nc(NCc3ccccc3)c3ccccc3n2)cc(OC)c1OC [Compound 10, N-benzyl-2-(3,4,5-trimethoxyphenyl)quinazolin-4-amine] |
| 730 ± 0.39 nM | COc1cc(-c2nc(NCc3ccc(F)c(F)c3)c3ccccc3n2)cc(OC)c1OC [Compound 12, N-(3,4-difluorobenzyl)-2-(3,4,5-trimethoxyphenyl)quinazolin-4-amine] |
| 1970 ± 0.74 nM | Oc1cc(-c2nc(NCCc3c[nH]c4ccccc34)c3ccccc3n2)cc(O)c1O [Compound 36, 5-(4-(2-(1H-indol-3-yl)ethylamino)quinazolin-2-yl)benzene-1,2,3-triol] |
| 1100 ± 0.14 nM | COc1ccc(CNc2nc(-c3cc(OC)c(OC)c(OC)c3)nc3ccccc23)cc1 [Compound 14, N-(4-methoxybenzyl)-2-(3,4,5-trimethoxyphenyl)quinazolin-4-amine] |
| 650 ± 0.21 nM | OCc1ccccc1Nc1nc(-c2cc(O)c(O)c(O)c2)nc2ccccc12 [Compound 28, 5-(4-(2-(hydroxymethyl)phenylamino)quinazolin-2-yl)benzene-1,2,3-triol] |
| 710 ± 0.87 nM | Oc1cc(-c2nc(Nc3ccc4[nH]ncc4c3)c3ccccc3n2)cc(O)c1O [Compound 35, 5-(4-(1H-indazol-5-ylamino)quinazolin-2-yl)benzene-1,2,3-triol] |

Same assay, conditions: relative to compound 2

| fold increase in the IC50 of Jurkat cell proliferation compared with compound 2 | SMILES |
| --- | --- |
| 10 fold | COc1cc(-c2nc(Nc3ccc(C)cc3C)c3ccccc3n2)cc(OC)c1OC [Compound 3, N-(2,4-dimethylphenyl)-2-(3,4,5-trimethoxyphenyl)quinazolin-4-amine] |

System: not given
Assay: not given
Conditions: not given

| melting point | SMILES |
| --- | --- |
| > 250 °C | Cc1ccc(Nc2nc(-c3cc(O)c(O)c(O)c3)nc3ccccc23)c(C)c1 [Compound 22, 5-(4-(2,4-dimethylphenylamino)quinazolin-2-yl)benzene-1,2,3-triol] |
| > 250 °C | Oc1cc(-c2nc(Nc3ccc(Cl)cc3)c3ccccc3n2)cc(O)c1O [Compound 27, 5-(4-(4-chlorophenylamino)quinazolin-2-yl)benzene-1,2,3-triol] |
| > 250 °C | Nc1ccc(CNc2nc(-c3cc(O)c(O)c(O)c3)nc3ccccc23)cc1 [Compound 30, 5-(4-(4-aminobenzylamino)quinazolin-2-yl)benzene-1,2,3-triol] |
| > 250 °C | COc1cc(-c2nc(Nc3ccc(C)cc3C)c3ccccc3n2)cc(OC)c1OC [Compound 3, N-(2,4-dimethylphenyl)-2-(3,4,5-trimethoxyphenyl)quinazolin-4-amine] |
| > 250 °C | COc1cc(-c2nc(Nc3ccc(Cl)cc3)c3ccccc3n2)cc(OC)c1OC [Compound 8, N-(4-chlorophenyl)-2-(3,4,5-trimethoxyphenyl)quinazolin-4-amine] |
| > 250 °C | COc1cc(-c2nc(NCc3ccccc3)c3ccccc3n2)cc(OC)c1OC [Compound 10, N-benzyl-2-(3,4,5-trimethoxyphenyl)quinazolin-4-amine] |
| > 250 °C | COc1cc(-c2nc(NCc3ccc(F)c(F)c3)c3ccccc3n2)cc(OC)c1OC [Compound 12, N-(3,4-difluorobenzyl)-2-(3,4,5-trimethoxyphenyl)quinazolin-4-amine] |
| > 250 °C | Oc1cc(-c2nc(NCCc3c[nH]c4ccccc34)c3ccccc3n2)cc(O)c1O [Compound 36, 5-(4-(2-(1H-indol-3-yl)ethylamino)quinazolin-2-yl)benzene-1,2,3-triol] |
| > 250 °C | OCc1ccccc1Nc1nc(-c2cc(O)c(O)c(O)c2)nc2ccccc12 [Compound 28, 5-(4-(2-(hydroxymethyl)phenylamino)quinazolin-2-yl)benzene-1,2,3-triol] |
| > 250 °C | Oc1cc(-c2nc(Nc3ccc4[nH]ncc4c3)c3ccccc3n2)cc(O)c1O [Compound 35, 5-(4-(1H-indazol-5-ylamino)quinazolin-2-yl)benzene-1,2,3-triol] |
